# Reference: patent publication US8895733B2 (Novartis AG, priority 2010, dated 2014)
# Molecular target: T1, Nav 1.7 (Homo sapiens, UniProt Q15858)
# T1 construct: expressed in transfected cells
# Test: Whole-cell voltage clamp electrophysiology, automated patch clamp (marker c in Table of Examples)
# Assay type: cell-based
# Settings: marker c = Automated patch clamp data; read-out: Nav 1.7 activity
# How it was run: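 Human NaV1.7 currents were recorded by whole-cell automated patch clamp, on IonWorks Quattro or another automated platform, typically in perforated-patch configuration. The stimulus protocol was designed to probe block mainly of the inactivated state, with a typical sweep stepping from about −65 mV holding to −10 mV, then −100 mV.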
# T1 sequence (Q15858 whole entry): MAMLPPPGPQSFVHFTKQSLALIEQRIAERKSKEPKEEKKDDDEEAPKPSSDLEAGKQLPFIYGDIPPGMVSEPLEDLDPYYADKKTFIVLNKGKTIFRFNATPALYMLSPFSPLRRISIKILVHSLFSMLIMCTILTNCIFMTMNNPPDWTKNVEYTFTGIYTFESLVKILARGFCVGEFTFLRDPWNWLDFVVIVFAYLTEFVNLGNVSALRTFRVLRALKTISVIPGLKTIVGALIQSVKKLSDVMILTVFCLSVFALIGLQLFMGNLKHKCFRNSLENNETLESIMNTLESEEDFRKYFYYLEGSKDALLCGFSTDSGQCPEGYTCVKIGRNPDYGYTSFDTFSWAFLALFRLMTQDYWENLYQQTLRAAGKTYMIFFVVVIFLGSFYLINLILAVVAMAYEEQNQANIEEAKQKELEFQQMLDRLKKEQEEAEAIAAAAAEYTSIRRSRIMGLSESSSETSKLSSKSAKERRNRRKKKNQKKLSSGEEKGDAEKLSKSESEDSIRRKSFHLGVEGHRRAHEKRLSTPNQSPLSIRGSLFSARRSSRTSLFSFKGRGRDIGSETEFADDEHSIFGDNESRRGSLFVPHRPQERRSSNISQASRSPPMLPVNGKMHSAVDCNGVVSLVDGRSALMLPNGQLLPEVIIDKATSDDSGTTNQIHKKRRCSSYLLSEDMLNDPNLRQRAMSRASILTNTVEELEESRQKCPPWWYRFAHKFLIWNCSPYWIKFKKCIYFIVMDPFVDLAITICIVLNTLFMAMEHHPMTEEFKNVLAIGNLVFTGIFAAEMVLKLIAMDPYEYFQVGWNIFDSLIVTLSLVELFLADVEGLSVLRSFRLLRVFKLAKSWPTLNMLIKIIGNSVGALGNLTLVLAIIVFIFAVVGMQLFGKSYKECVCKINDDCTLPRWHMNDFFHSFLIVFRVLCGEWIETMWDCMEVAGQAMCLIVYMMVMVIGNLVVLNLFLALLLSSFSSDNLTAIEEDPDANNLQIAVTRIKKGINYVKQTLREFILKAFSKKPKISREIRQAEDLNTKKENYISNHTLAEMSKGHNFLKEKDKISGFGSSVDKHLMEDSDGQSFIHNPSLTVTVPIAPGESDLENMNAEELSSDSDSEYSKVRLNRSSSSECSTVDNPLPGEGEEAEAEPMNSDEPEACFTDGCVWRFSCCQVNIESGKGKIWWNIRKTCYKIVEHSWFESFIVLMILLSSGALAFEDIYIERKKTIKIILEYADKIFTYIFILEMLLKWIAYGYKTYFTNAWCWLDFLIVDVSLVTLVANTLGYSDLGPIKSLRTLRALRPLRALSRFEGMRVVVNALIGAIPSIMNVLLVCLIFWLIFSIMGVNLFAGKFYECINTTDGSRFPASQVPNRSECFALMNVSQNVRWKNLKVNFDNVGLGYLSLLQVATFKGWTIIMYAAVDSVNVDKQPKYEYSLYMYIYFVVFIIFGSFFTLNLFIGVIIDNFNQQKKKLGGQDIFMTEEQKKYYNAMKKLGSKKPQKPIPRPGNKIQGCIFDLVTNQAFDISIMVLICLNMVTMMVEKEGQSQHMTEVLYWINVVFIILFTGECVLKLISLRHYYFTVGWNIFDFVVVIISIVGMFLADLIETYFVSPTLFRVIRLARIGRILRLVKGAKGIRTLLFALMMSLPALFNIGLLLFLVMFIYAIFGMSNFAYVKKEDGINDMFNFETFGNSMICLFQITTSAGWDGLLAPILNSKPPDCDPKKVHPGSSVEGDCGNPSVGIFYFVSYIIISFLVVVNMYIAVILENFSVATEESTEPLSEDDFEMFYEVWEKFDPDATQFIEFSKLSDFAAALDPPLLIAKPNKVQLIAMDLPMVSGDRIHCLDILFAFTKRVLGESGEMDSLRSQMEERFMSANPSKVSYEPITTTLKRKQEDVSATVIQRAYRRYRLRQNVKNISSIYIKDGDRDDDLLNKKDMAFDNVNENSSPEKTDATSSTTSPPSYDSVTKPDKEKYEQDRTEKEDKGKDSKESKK
row,Compound,IC50
1,"CN(c1ccccc1)c1nc(N)nc(-c2noc(-c3ccc(SCC(F)(F)F)nc3)n2)n1 [Example 318, 2-N-methyl-2-N-phenyl-6-(5-{6-[(2,2,2-trifluoroethyl)sulfanyl]pyridin-3-yl}-1,2,4-oxadiazol-3-yl)-1,3,5-triazine-2,4-diamine]",1.89 µM
2,"Nc1nc(Nc2ccccc2)nc(-c2noc(-c3ccc(CCC(F)(F)F)nc3)n2)n1 [Example 319, 2-N-phenyl-6-{5-[6-(3,3,3-trifluoropropyl)pyridin-3-yl]-1,2,4-oxadiazol-3-yl}-1,3,5-triazine-2,4-diamine]",0.15 µM
3,"CN(c1ccccc1)c1nc(N)nc(-c2noc(-c3ccc(CS(=O)(=O)CC(F)(F)F)nc3)n2)n1 [Example 321, 2-N-methyl-2-N-phenyl-6-[5-(6-{[(2,2,2-trifluoroethane)sulfonyl]methyl}pyridin-3-yl)-1,2,4-oxadiazol-3-yl]-1,3,5-triazine-2,4-diamine]",0.149 µM
4,"CN(c1ccccc1)c1nc(N)nc(-c2noc(C(=O)N3CCC(=CCC(F)(F)F)CC3)n2)n1 [Example 322, 2-N-methyl-2-N-phenyl-6-(5-{[4-(3,3,3-trifluoropropylidene)piperidin-1-yl]carbonyl}-1,2,4-oxadiazol-3-yl)-1,3,5-triazine-2,4-diamine]",3.27 µM
5,"CN(c1ccccc1)c1nc(N)nc(-c2noc(N3Cc4cncnc4C3)n2)n1 [Example 323, 2-N-Methyl-2-N-phenyl-6-(5-{5H,6H,7H-pyrrolo[3,4-d]pyrimidin-6-yl}-1,2,4-oxadiazol-3-yl)-1,3,5-triazine-2,4-diamine]",6.45 µM
6,"CN(c1ccccc1)c1nc(N)nc(-c2noc(N3CCC(=CCC(F)(F)F)CC3)n2)n1 [Example 324, 2-N-Methyl-2-N-phenyl-6-{5-[4-(3,3,3-trifluoropropylidene)piperidin-1-yl]-1,2,4-oxadiazol-3-yl}-1,3,5-triazine-2,4-diamine]",2.36 µM
7,"Nc1nc(Nc2cc(Cl)ccc2F)nc(-c2noc(-c3ccccn3)n2)n1 [Example 325, 2-N-(5-chloro-2-fluorophenyl)-6-[5-(pyridin-2-yl)-1,2,4-oxadiazol-3-yl]-1,3,5-triazine-2,4-diamine]",0.435 µM
8,"CN(c1ccccc1)c1nc(N)nc(-c2noc(-c3ccc(NCC(F)(F)F)nc3)n2)n1 [Example 327, 2-N-Methyl-2-N-phenyl-6-(5-{6-[(2,2,2-trifluoroethyl)amino]pyridin-3-yl}-1,2,4-oxadiazol-3-yl)-1,3,5-triazine-2,4-diamine]",1.86 µM
9,"CN(c1ccccc1)c1nc(N)nc(-c2noc(-c3ccc(NC4CCOC4)nc3)n2)n1 (stereo not shown) [Example 328, 2-N-methyl-6-(5-{6-[(oxolan-3-yl)amino]pyridin-3-yl}-1,2,4-oxadiazol-3-yl)-2-N-phenyl-1,3,5-triazine-2,4-diamine]",7.96 µM
10,"COCCOc1ccc(-c2nc(-c3nc(N)nc(N(C)c4ccccc4)n3)no2)cn1 [Example 329, 6-{5-[6-(2-methoxyethoxy)pyridin-3-yl]-1,2,4-oxadiazol-3-yl}-2-N-methyl-2-N-phenyl-1,3,5-triazine-2,4-diamine]",0.894 µM
11,"CN(c1ccccc1)c1nc(N)nc(-c2noc(-c3ccc(OCC#N)nc3)n2)n1 [Example 330, 2-{[5-(3-{4-Amino-6-[methyl(phenyl)amino]-1,3,5-triazin-2-yl}-1,2,4-oxadiazol-5-yl)pyridin-2-yl]oxy}acetonitrile]",9.21 µM
12,"CN(c1ccccc1)c1nc(N)nc(-c2noc(-c3ccc(OC4CCC4)nc3)n2)n1 [Example 331, 6-[5-(6-cyclobutoxypyridin-3-yl)-1,2,4-oxadiazol-3-yl]-2-N-methyl-2-N-phenyl-1,3,5-triazine-2,4-diamine]",0.14 µM
13,"CC(C)Nc1ccc(-c2nc(-c3nc(N)nc(N(C)c4ccccc4)n3)no2)cn1 [Example 332, 2-N-Methyl-2-N-phenyl-6-(5-{6-[(propan-2-yl)amino]pyridin-3-yl}-1,2,4-oxadiazol-3-yl)-1,3,5-triazine-2,4-diamine]",1.11 µM
